Legend:
GSPT1 = assay: Western blot, degradation of substrate protein in hPBMCs; format: cell-based, Human
[1] = molecular target: T1, human Cereblon WT GST-tagged protein (Homo sapiens, UniProt Q96SW2); assay: CRBN-binding affinity, HTRF (CEREBLON BINDING kit); settings: for inhibition at 0.5 µM: read-out: Inhibition Rate at 0.5 µM (%); for inhibition at 2 µM: read-out: Inhibition Rate at 2 µM (%)
T1 construct: purchased CISBIO 64BDCRBNPEH

IKZF2 = molecular target: T2, IKZF2 (Homo sapiens, UniProt Q96SW2+Q9UKS7); assay: Western blot, degradation of substrate protein in hPBMCs; format: cell-based
T2 construct: effects of the compounds of the present disclosure on the expression of target proteins in cells; endogenous in cells; host or cells: human PBMCs (Milecell Biotechnologies)
T2 sequence (Q9UKS7 whole entry): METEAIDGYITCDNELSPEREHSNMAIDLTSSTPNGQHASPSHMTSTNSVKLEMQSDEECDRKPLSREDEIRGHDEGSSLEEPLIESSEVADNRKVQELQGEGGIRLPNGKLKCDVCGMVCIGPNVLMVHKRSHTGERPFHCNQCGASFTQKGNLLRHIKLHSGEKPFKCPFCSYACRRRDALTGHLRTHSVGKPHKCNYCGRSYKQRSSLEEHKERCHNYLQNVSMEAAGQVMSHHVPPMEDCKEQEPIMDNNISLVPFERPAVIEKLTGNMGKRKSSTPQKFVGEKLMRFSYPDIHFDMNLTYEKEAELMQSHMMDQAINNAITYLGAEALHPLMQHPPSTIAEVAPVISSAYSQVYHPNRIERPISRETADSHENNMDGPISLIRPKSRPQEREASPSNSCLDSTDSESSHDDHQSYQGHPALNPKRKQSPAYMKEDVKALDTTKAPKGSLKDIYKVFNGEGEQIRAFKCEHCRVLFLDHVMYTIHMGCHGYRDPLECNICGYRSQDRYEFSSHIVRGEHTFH
T2 sequence (Q96SW2 whole entry): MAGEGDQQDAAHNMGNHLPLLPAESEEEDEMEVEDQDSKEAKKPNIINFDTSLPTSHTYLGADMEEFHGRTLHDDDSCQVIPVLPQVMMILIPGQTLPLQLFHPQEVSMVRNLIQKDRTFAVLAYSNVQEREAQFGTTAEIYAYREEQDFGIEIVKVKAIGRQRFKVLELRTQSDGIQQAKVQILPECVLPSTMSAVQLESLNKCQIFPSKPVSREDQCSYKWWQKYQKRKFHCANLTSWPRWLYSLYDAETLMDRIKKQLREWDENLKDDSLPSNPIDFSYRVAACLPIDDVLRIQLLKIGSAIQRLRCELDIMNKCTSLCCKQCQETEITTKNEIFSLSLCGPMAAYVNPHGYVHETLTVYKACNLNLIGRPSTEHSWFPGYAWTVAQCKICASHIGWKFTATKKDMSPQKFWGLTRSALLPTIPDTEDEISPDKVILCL
T2 sequence (Q16531 whole entry partner): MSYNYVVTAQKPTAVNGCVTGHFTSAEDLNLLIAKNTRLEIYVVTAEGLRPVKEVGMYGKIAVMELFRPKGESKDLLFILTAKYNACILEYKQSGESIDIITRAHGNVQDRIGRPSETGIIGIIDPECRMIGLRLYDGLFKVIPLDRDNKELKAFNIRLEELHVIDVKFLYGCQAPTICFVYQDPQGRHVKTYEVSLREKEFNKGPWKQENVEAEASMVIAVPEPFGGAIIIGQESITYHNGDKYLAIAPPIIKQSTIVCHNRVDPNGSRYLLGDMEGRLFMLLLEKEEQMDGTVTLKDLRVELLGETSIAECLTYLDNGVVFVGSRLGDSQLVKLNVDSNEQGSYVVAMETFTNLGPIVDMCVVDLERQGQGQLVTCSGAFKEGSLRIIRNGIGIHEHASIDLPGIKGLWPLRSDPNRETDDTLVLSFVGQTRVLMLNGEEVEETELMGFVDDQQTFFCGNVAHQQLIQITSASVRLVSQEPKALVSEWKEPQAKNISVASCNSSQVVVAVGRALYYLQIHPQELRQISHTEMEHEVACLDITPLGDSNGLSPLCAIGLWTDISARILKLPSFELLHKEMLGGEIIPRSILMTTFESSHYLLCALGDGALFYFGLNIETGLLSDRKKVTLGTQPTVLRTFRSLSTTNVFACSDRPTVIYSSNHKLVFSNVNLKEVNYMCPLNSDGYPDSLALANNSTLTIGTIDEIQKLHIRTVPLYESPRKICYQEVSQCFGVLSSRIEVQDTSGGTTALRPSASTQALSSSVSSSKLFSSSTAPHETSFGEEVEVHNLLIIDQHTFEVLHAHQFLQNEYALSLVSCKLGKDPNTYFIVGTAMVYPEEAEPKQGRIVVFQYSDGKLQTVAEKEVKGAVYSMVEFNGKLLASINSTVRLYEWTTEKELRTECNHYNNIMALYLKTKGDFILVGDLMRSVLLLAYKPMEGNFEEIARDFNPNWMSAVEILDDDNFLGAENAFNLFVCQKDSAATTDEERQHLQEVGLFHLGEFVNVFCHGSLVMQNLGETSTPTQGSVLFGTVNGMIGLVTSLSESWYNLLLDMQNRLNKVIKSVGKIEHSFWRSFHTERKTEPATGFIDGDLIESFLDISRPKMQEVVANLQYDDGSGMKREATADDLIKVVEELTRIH

IKZF1 = molecular target: T3, IKZF1 (Homo sapiens, UniProt Q13422+Q96SW2); assay: as above; format: cell-based
T3 construct: effects of the compounds of the present disclosure on the expression of target proteins in cells; endogenous in cells; host or cells: human PBMCs (Milecell Biotechnologies)
T3 sequence (Q13422 whole entry): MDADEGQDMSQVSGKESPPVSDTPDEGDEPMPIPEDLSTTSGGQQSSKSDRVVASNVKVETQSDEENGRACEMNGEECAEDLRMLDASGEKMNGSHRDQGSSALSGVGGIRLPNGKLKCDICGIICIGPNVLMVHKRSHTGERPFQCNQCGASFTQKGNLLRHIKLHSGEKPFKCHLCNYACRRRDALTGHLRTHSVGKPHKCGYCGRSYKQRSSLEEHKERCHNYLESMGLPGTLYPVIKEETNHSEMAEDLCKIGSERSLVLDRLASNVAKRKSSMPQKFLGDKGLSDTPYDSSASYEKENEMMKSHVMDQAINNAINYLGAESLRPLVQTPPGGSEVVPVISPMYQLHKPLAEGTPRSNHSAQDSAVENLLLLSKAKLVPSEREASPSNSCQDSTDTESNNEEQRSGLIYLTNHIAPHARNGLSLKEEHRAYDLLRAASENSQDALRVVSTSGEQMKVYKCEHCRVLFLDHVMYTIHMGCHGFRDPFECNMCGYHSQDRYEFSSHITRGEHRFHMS
T3 sequence (Q96SW2 whole entry): as the sequence (Q96SW2 whole entry) above
T3 sequence (Q16531 whole entry partner): as the sequence (Q16531 whole entry partner) above

CK1α = molecular target: T4, CK1α (Homo sapiens, UniProt P48729+Q96SW2); assay: as above; format: cell-based
T4 construct: effects of the compounds of the present disclosure on the expression of target proteins in cells; endogenous in cells; host or cells: human PBMCs (Milecell Biotechnologies)
T4 sequence (P48729 whole entry): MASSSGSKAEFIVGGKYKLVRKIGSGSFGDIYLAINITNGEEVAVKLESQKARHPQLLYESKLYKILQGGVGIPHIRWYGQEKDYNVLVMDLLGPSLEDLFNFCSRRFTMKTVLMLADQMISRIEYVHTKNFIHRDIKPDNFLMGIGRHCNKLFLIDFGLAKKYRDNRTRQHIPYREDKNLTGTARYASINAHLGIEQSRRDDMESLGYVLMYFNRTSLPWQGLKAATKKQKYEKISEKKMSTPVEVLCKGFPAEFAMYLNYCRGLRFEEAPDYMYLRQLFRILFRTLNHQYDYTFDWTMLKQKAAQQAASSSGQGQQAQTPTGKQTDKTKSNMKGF
T4 sequence (Q96SW2 whole entry): as the sequence (Q96SW2 whole entry) above
T4 sequence (Q16531 whole entry partner): as the sequence (Q16531 whole entry partner) above

WEE1 = molecular target: T5, WEE1 (Homo sapiens, UniProt P30291+Q96SW2); assay: as above; format: cell-based
T5 construct: effects of the compounds of the present disclosure on the expression of target proteins in cells; endogenous in cells; host or cells: human PBMCs (Milecell Biotechnologies)
T5 sequence (P30291 whole entry): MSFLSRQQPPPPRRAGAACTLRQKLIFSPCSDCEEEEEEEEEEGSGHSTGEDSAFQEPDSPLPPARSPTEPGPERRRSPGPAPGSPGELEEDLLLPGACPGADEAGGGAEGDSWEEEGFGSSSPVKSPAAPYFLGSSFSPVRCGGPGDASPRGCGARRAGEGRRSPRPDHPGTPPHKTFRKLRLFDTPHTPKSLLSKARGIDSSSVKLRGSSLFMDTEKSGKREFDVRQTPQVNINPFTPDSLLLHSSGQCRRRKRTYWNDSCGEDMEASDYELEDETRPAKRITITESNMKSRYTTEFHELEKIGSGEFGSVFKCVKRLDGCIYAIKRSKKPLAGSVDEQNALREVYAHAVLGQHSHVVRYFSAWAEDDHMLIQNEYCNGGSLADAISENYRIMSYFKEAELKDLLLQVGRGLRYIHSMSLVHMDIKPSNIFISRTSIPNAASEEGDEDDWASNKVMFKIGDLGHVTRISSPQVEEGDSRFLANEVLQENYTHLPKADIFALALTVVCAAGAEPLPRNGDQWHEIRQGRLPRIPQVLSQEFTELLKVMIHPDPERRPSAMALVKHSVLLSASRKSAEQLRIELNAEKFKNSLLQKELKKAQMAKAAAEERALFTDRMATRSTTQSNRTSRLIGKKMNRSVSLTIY
T5 sequence (Q96SW2 whole entry): as the sequence (Q96SW2 whole entry) above
T5 sequence (Q16531 whole entry partner): as the sequence (Q16531 whole entry partner) above

IKZF3 = molecular target: T6, IKZF3 (Homo sapiens, UniProt Q96SW2+Q9UKT9); assay: as above; format: cell-based
T6 construct: effects of the compounds of the present disclosure on the expression of target proteins in cells; endogenous in cells; host or cells: human PBMCs (Milecell Biotechnologies)
T6 sequence (Q9UKT9 whole entry): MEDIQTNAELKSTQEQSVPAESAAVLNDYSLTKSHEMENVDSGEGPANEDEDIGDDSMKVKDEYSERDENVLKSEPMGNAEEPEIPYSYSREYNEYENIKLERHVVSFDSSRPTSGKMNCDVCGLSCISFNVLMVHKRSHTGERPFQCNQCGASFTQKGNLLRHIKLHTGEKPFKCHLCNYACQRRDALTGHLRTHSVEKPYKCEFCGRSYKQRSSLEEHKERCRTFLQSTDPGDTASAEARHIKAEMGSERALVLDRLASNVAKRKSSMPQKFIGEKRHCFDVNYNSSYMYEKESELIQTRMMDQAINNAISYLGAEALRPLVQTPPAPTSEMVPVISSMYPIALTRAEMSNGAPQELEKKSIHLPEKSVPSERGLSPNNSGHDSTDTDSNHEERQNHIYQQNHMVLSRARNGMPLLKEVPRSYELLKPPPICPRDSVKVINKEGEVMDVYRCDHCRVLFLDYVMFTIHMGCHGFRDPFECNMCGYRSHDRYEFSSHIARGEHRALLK
T6 sequence (Q96SW2 whole entry): as the sequence (Q96SW2 whole entry) above
T6 sequence (Q16531 whole entry partner): as the sequence (Q16531 whole entry partner) above

[2] = Western blot, 24 hours of compound treatment, compounds tested at 50 nM and 500 nM (concentration for the table not stated)
[3] = 24 hours treatment, compounds at 50 nM and 500 nM (concentration behind the class not stated)

T1 sequence (Q96SW2 whole entry): as the sequence (Q96SW2 whole entry) above

Row | SMILES | GSPT1 substrate protein remaining % (GSPT1; [2]) | inhibition at 0.5 µM [1] [%] | inhibition at 2 µM [1] [%] | IKZF2 substrate protein remaining % (IKZF2; [2]) | IKZF 1 substrate protein remaining % (IKZF1; [2]) | CK1α substrate protein remaining % (CK1α; [2]) | Wee1 substrate protein remaining % (WEE1; [2]) | IKZF3 substrate protein remaining % (IKZF3; [2]) | GSPT1 substrate protein remaining % (GSPT1; [3]) | IKZF2 substrate protein remaining % (IKZF2; [3]) | IKZF 1 substrate protein remaining % (IKZF1; [3]) | CK1α substrate protein remaining % (CK1α; [3]) | Wee1 substrate protein remaining % (WEE1; [3]) | IKZF3 substrate protein remaining % (IKZF3; [3]) | IC50 ([1]; CRBN binding, HTRF, 3 hours at room temperature, read-out: HTRF IC50) [nM]
1 | CC1(C)CN(Cc2ccc3c(c2)CN(C2CCC(=O)NC2=O)C3=S)CCN1C(c1ccccc1)c1ccccc1 (centres unmarked) [GT-07845, 3-(5-((4-benzhydryl-3,3-dimethylpiperazin-1-yl)methyl)-1-thioxoisoindolin-2-yl)piperidine-2,6-dione] | B (80%< substrate protein remaining %≤ 100%) | 40 to 53 | 60 to 80 | A (0% ≤ substrate protein remaining % ≤ 80%) | A (0% ≤ substrate protein remaining % ≤ 80%) | B (80%< substrate protein remaining %≤ 100%) | A (0% ≤ substrate protein remaining % ≤ 80%) | B (80%< substrate protein remaining %≤ 100%) |  |  |  |  |  |  | 
2 | COc1ccc(N2CCN(Cc3cccc4c3CN(C3CCC(=O)NC3=O)C4=S)CC2)cc1 (centres unmarked) [GT-08495, 3-(4-((4-(4-methoxyphenyl)piperazin-1-yl)methyl)-1-thioxoisoindolin-2-yl)piperidine-2,6-dione] | A (0% ≤ substrate protein remaining % ≤ 80%) | 53 to 60 | 60 to 80 | A (0% ≤ substrate protein remaining % ≤ 80%) | A (0% ≤ substrate protein remaining % ≤ 80%) | B (80%< substrate protein remaining %≤ 100%) | A (0% ≤ substrate protein remaining % ≤ 80%) | B (80%< substrate protein remaining %≤ 100%) |  |  |  |  |  |  | 
3 | O=C1CCC(N2Cc3c(CN4CCN(c5ccc(F)cc5F)CC4)cccc3C2=S)C(=O)N1 (centres unmarked) [GT-08503, 3-(4-((4-(2,4-difluorophenyl)piperazin-1-yl)methyl)-1-thioxoisoindolin-2-yl)piperidine-2,6-dione] | A (0% ≤ substrate protein remaining % ≤ 80%) | 40 to 53 | 60 to 80 | B (80%< substrate protein remaining %≤ 100%) | B (80%< substrate protein remaining %≤ 100%) | B (80%< substrate protein remaining %≤ 100%) | A (0% ≤ substrate protein remaining % ≤ 80%) | B (80%< substrate protein remaining %≤ 100%) |  |  |  |  |  |  | 
4 | Cc1csc2ncnc(N3CCN(Cc4cccc5c4CN(C4CCC(=O)NC4=O)C5=S)CC3)c12 (centres unmarked) [GT-08913, 3-(4-((4-(5-methylthieno[2,3-d]pyrimidin-4-yl)piperazin-1-yl)methyl)-1-thioxoisoindolin-2-yl)piperidine-2,6-dione] |  | 60 to 80 | 80 to 100 |  |  |  |  |  | B (80%< substrate protein remaining %≤ 100%) | B (80%< substrate protein remaining %≤ 100%) | B (80%< substrate protein remaining %≤ 100%) | B (80%< substrate protein remaining %≤ 100%) | A (0% ≤ substrate protein remaining % ≤ 80%) | B (80%< substrate protein remaining %≤ 100%) | 
5 | Cc1nc(C2=CCN(Cc3cccc4c3CN(C3CCC(=O)NC3=O)C4=S)CC2)c2c3c(sc2n1)CCC3 (centres unmarked) [GT-08964, 3-(4-((4-(2-methyl-6,7-dihydro-5H-cyclopenta[4,5]thieno[2,3-d]pyrimidin-4-yl)-3,6-dihydropyridin-1(2H)-yl)methyl)-1-thioxoisoindolin-2-yl)piperidine-2,6-dione] |  | 53 to 60 | 80 to 100 |  |  |  |  |  | B (80%< substrate protein remaining %≤ 100%) | B (80%< substrate protein remaining %≤ 100%) | B (80%< substrate protein remaining %≤ 100%) | B (80%< substrate protein remaining %≤ 100%) | A (0% ≤ substrate protein remaining % ≤ 80%) | B (80%< substrate protein remaining %≤ 100%) | 
6 | O=C1CCC(N2Cc3ccc(CN4CCC(c5noc6cc(F)ccc56)CC4)cc3C2=S)C(=O)N1 (centres unmarked) [GT-05031, 3-(6-((4-(6-fluorobenzo[d]isoxazol-3-yl)piperidin-1-yl)methyl)-1-thioxoisoindolin-2-yl)piperidine-2,6-dione] |  |  |  |  |  |  |  |  | A (0% ≤ substrate protein remaining % ≤ 80%) | B (80%< substrate protein remaining %≤ 100%) | B (80%< substrate protein remaining %≤ 100%) | B (80%< substrate protein remaining %≤ 100%) | B (80%< substrate protein remaining %≤ 100%) | A (0% ≤ substrate protein remaining % ≤ 80%) | 100 to 500
7 | O=C1CCC(N2Cc3c(CN4CCN(c5ncc(Cl)cc5Cl)CC4)cccc3C2=S)C(=O)N1 (centres unmarked) [GT-08703, 3-(4-((4-(3,5-dichloropyridin-2-yl)piperazin-1-yl)methyl)-1-thioxoisoindolin-2-yl)piperidine-2,6-dione] | B (80%< substrate protein remaining %≤ 100%) | 53 to 60 | 60 to 80 | B (80%< substrate protein remaining %≤ 100%) | B (80%< substrate protein remaining %≤ 100%) | B (80%< substrate protein remaining %≤ 100%) | A (0% ≤ substrate protein remaining % ≤ 80%) | B (80%< substrate protein remaining %≤ 100%) |  |  |  |  |  |  | 
8 | Cc1cccc(N2CCN(Cc3cccc4c3CN(C3CCC(=O)NC3=O)C4=S)CC2)n1 (centres unmarked) [GT-08692, 3-(4-((4-(6-methylpyridin-2-yl)piperazin-1-yl)methyl)-1-thioxoisoindolin-2-yl)piperidine-2,6-dione] | B (80%< substrate protein remaining %≤ 100%) | 53 to 60 | 80 to 100 | B (80%< substrate protein remaining %≤ 100%) | B (80%< substrate protein remaining %≤ 100%) | B (80%< substrate protein remaining %≤ 100%) | A (0% ≤ substrate protein remaining % ≤ 80%) | B (80%< substrate protein remaining %≤ 100%) |  |  |  |  |  |  | 
9 | O=C1CCC(N2Cc3cc(CN4CCN(C(c5ccccn5)c5ccccn5)CC4)ccc3C2=S)C(=O)N1 (centres unmarked) [GT-07734, 3-(5-((4-(di(pyridin-2-yl)methyl)piperazin-1-yl)methyl)-1-thioxoisoindolin-2-yl)piperidine-2,6-dione] | A (0% ≤ substrate protein remaining % ≤ 80%) | 60 to 80 | 80 to 100 | B (80%< substrate protein remaining %≤ 100%) | B (80%< substrate protein remaining %≤ 100%) | B (80%< substrate protein remaining %≤ 100%) | A (0% ≤ substrate protein remaining % ≤ 80%) | A (0% ≤ substrate protein remaining % ≤ 80%) |  |  |  |  |  |  | 
10 | O=C1CCC(N2Cc3c(CN4CC=C(c5ccnc(Cl)c5Cl)CC4)cccc3C2=S)C(=O)N1 (centres unmarked) [GT-08462, 3-(4-((2',3'-dichloro-3,6-dihydro-[4,4'-bipyridin]-1(2H)-yl)methyl)-1-thioxoisoindolin-2-yl)piperidine-2,6-dione] | B (80%< substrate protein remaining %≤ 100%) | 60 to 80 | 80 to 100 | B (80%< substrate protein remaining %≤ 100%) | B (80%< substrate protein remaining %≤ 100%) | B (80%< substrate protein remaining %≤ 100%) | A (0% ≤ substrate protein remaining % ≤ 80%) | B (80%< substrate protein remaining %≤ 100%) |  |  |  |  |  |  | 
11 | O=C1CCC(N2Cc3cc(CN4CCN(c5ccc(Cl)nc5)CC4)ccc3C2=S)C(=O)N1 (centres unmarked) [GT-09230, 3-(5-((4-(6-chloropyridin-3-yl)piperazin-1-yl)methyl)-1-thioxoisoindolin-2-yl)piperidine-2,6-dione] | A (0% ≤ substrate protein remaining % ≤ 80%) | 60 to 80 | 80 to 100 | B (80%< substrate protein remaining %≤ 100%) | B (80%< substrate protein remaining %≤ 100%) | A (0% ≤ substrate protein remaining % ≤ 80%) | B (80%< substrate protein remaining %≤ 100%) | B (80%< substrate protein remaining %≤ 100%) |  |  |  |  |  |  | 
12 | Cc1cc(N2CCN(Cc3cccc4c3CN(C3CCC(=O)NC3=O)C4=S)CC2)cc(C)n1 (centres unmarked) [GT-08806, 3-(4-((4-(2,6-dimethylpyridin-4-yl)piperazin-1-yl)methyl)-1-thioxoisoindolin-2-yl)piperidine-2,6-dione] | B (80%< substrate protein remaining %≤ 100%) | 53 to 60 | 80 to 100 | B (80%< substrate protein remaining %≤ 100%) | B (80%< substrate protein remaining %≤ 100%) | B (80%< substrate protein remaining %≤ 100%) | A (0% ≤ substrate protein remaining % ≤ 80%) | B (80%< substrate protein remaining %≤ 100%) |  |  |  |  |  |  | 

Source: patent EP4745135A1 (Gluetacs Therapeutics (Shanghai) Co., Ltd., priority 2023, dated 2025)
